# How the values were obtained:
# Test in all cases: radiometric filter-binding kinase assay, Kinase HotSpot
# Details in all cases: compound 0.5 µM; ATP 10 µM
# CDK6 CCND1 (human) = CDK6 CCND1 (human) (UniProt Q00534+P24385)
# PKN2 (human) = PKN2 (human) (UniProt Q16513)
# GRK6 (human) = GRK6 (human) (UniProt P43250)
# ALK (human) = ALK (human) (UniProt Q9UM73)
# SIK2 (human) = SIK2 (human) (UniProt Q9H0K1)
# LTK (human) = LTK (human) (UniProt P29376)
# CSNK1G1 (human) = CSNK1G1 (human) (UniProt Q9HCP0)
# CDK5 CDK5R1 p35 (human) = CDK5 CDK5R1 p35 (human) (UniProt Q00535+Q15078)
# [1] = tested on: FLT4 (human), P35916 [Q890H]
# AKT2 (human) = AKT2 (human) (UniProt P31751)
# STK4 (human) = STK4 (human) (UniProt Q13043)
# ULK2 (human) = ULK2 (human) (UniProt Q8IYT8)
# BRSK1 (human) = BRSK1 (human) (UniProt Q8TDC3)
# CDK9 CCNT1 (human) = CDK9 CCNT1 (human) (UniProt P50750+O60563)
# FGFR1 (human) = FGFR1 (human) (UniProt P11362)
# MAP3K11 (human) = MAP3K11 (human) (UniProt Q16584)
# TSSK1B (human) = TSSK1B (human) (UniProt Q9BXA7)
# PRKCA (human) = PRKCA (human) (UniProt P17252)
# GSG2 (human) = GSG2 (human) (UniProt Q8TF76)
# MAP2K2 (human) = MAP2K2 (human) (UniProt P36507)
# STK25 (human) = STK25 (human) (UniProt O00506)
# WEE1 (human) = WEE1 (human) (UniProt P30291)
# MAP2K1 (human) = MAP2K1 (human) (UniProt Q02750)
# STK16 (human) = STK16 (human) (UniProt O75716)
# PIM2 (human) = PIM2 (human) (UniProt Q9P1W9)
# IGF1R (human) = IGF1R (human) (UniProt P08069)
# FES (human) = FES (human) (UniProt P07332)
# MAPK13 (human) = MAPK13 (human) (UniProt O15264)
# STK17A (human) = STK17A (human) (UniProt Q9UEE5)
# VRK1 (human) = VRK1 (human) (UniProt Q99986)
# GSK3A (human) = GSK3A (human) (UniProt P49840)
# TAOK2 (human) = TAOK2 (human) (UniProt Q9UL54)
# PIM3 (human) = PIM3 (human) (UniProt Q86V86)
# TNK2 (human) = TNK2 (human) (UniProt Q07912)
# STK33 (human) = STK33 (human) (UniProt Q9BYT3)
# NEK3 (human) = NEK3 (human) (UniProt P51956)
# MST1R (human) = MST1R (human) (UniProt Q04912)
# PRKD3 (human) = PRKD3 (human) (UniProt O94806)
# NTRK2 (human) = NTRK2 (human) (UniProt Q16620)
# RPS6KA5 KD2 (human) = RPS6KA5 KD2 (human) (UniProt O75582)
# RPS6KA3 KD1 KD2 (human) = RPS6KA3 KD1 KD2 (human) (UniProt P51812)
# NEK6 (human) = NEK6 (human) (UniProt Q9HC98)
# CSNK1G1 (human), sequence (Q9HCP0 whole entry, looked up): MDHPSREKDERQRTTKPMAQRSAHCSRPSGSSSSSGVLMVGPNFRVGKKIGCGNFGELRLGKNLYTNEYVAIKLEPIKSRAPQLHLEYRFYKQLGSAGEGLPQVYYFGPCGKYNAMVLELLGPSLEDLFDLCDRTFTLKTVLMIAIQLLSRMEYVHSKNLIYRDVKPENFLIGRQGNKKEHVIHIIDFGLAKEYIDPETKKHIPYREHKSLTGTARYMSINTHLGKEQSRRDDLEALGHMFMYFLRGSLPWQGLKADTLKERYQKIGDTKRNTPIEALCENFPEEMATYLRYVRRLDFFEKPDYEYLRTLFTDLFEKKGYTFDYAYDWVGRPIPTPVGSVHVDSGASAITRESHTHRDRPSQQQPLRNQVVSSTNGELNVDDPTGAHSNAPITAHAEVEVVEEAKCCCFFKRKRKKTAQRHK
# NEK3 (human), sequence (P51956 whole entry, looked up): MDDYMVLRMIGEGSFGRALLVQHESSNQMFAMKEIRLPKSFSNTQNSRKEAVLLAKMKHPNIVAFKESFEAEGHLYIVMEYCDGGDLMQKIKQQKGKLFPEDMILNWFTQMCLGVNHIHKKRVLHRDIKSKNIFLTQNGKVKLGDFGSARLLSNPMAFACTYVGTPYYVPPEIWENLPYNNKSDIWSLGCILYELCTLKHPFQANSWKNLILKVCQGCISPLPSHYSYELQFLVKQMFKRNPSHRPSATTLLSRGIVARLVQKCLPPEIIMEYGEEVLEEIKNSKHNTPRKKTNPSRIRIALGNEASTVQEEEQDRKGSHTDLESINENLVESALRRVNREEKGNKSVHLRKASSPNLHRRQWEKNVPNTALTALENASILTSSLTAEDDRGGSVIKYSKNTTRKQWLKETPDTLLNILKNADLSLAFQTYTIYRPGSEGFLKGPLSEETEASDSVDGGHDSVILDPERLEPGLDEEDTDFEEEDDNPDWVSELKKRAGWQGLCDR
# MAPK13 (human), sequence (O15264 whole entry, looked up): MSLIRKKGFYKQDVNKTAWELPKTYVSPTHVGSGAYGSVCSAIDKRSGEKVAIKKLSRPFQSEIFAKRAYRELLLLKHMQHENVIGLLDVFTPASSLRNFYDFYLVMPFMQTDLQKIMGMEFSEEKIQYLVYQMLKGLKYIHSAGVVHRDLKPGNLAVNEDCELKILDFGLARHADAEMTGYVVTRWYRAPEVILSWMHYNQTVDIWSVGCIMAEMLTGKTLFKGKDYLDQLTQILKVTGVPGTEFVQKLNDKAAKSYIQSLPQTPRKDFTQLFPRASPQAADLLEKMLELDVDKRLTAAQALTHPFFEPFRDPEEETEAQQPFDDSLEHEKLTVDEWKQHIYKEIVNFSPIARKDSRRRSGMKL
# ALK (human), sequence (Q9UM73 whole entry, looked up): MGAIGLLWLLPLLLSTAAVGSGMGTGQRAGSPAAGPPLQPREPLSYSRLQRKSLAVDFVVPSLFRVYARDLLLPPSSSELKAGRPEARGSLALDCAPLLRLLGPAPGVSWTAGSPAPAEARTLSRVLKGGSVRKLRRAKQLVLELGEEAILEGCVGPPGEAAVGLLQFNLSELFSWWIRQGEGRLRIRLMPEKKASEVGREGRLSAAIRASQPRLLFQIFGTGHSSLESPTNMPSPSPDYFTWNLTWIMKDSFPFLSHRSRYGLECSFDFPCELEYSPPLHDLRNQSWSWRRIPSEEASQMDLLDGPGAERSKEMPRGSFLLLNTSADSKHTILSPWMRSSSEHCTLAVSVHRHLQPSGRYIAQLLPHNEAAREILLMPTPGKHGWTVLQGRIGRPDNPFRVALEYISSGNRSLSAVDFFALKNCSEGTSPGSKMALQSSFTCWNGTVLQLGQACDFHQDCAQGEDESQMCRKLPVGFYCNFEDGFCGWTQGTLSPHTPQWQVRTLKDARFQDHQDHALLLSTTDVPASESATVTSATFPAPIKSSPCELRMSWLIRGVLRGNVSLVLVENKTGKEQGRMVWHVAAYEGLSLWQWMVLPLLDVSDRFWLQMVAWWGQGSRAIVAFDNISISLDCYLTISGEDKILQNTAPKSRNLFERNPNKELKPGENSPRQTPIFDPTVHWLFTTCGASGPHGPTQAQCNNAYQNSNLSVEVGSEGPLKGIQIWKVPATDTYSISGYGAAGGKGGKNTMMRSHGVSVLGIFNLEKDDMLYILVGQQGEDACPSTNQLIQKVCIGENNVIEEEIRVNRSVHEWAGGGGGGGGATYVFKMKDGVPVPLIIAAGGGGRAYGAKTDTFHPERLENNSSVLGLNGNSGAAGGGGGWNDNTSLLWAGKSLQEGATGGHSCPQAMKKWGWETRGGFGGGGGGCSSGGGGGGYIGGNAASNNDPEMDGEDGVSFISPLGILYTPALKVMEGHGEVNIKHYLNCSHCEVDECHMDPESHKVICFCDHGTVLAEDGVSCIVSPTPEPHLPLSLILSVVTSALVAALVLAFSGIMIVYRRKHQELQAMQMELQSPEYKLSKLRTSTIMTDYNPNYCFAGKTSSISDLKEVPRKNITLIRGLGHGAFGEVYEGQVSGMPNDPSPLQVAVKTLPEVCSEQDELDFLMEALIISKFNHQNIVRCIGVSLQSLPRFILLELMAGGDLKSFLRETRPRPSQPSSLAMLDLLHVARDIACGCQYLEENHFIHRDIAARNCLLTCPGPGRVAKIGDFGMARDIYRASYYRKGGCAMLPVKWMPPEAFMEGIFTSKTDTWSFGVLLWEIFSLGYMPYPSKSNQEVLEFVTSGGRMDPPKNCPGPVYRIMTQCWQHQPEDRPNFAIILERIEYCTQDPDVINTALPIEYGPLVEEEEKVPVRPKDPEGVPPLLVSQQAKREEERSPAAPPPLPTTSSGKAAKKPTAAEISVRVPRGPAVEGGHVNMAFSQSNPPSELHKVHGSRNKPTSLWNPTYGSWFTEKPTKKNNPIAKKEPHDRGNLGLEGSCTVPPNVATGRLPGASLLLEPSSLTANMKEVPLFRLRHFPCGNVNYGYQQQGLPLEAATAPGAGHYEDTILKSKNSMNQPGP
# MAP3K11 (human), sequence (Q16584 whole entry, looked up): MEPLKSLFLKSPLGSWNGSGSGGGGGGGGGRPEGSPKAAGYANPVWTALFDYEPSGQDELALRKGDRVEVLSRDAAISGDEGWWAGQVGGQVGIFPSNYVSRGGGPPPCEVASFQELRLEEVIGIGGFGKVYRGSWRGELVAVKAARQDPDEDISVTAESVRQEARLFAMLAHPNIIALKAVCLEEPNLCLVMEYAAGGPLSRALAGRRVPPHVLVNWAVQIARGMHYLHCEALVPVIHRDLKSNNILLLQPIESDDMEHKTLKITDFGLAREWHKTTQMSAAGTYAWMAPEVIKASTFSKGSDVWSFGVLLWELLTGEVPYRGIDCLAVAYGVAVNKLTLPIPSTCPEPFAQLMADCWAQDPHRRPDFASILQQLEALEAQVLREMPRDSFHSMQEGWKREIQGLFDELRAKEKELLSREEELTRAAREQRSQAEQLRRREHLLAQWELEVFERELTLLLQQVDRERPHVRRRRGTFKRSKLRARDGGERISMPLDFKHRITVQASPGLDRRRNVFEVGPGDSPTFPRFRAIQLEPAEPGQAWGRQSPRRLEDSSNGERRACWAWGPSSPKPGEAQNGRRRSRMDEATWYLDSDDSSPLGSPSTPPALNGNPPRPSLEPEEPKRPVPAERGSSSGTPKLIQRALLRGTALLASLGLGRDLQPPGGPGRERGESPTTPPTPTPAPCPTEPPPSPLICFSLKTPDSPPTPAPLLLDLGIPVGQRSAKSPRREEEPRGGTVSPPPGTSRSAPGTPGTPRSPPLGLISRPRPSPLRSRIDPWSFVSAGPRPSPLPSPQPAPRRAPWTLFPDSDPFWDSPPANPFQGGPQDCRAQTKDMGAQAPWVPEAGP
# MAP2K2 (human), sequence (P36507 whole entry, looked up): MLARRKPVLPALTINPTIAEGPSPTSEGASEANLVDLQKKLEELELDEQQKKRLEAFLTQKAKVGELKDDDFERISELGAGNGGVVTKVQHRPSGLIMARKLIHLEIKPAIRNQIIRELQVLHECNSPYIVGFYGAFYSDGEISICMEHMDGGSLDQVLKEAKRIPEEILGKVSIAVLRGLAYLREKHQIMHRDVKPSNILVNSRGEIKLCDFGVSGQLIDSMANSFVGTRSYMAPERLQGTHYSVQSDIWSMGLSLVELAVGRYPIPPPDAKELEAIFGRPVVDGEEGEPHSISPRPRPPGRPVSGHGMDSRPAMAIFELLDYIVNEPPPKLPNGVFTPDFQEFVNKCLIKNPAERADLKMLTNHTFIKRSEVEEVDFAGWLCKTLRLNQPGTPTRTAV
compound,measurement,setting,value
CCCCc1c(-c2ccc(OC)cc2)[nH]c2nccnc12,residual activity,CDK6 CCND1 (human),54.8%
same,residual activity,PKN2 (human),88.6%
same,residual activity,GRK6 (human),88.3%
same,residual activity,ALK (human),96.7%
same,residual activity,SIK2 (human),98.4%
same,residual activity,LTK (human),83.9%
same,residual activity,CSNK1G1 (human),93.3%
same,residual activity,CDK5 CDK5R1 p35 (human),48.3%
same,residual activity,[1],81.1%
same,residual activity,AKT2 (human),93.8%
same,residual activity,STK4 (human),82.2%
same,residual activity,ULK2 (human),108%
same,residual activity,BRSK1 (human),89.1%
same,residual activity,CDK9 CCNT1 (human),55.2%
same,residual activity,FGFR1 (human),83.3%
same,residual activity,MAP3K11 (human),39.4%
same,residual activity,TSSK1B (human),65.3%
same,residual activity,PRKCA (human),92.7%
same,residual activity,GSG2 (human),80%
same,residual activity,MAP2K2 (human),79.4%
same,residual activity,STK25 (human),90.3%
same,residual activity,WEE1 (human),85.9%
same,residual activity,MAP2K1 (human),88.7%
same,residual activity,STK16 (human),58.7%
same,residual activity,PIM2 (human),115%
same,residual activity,IGF1R (human),83.9%
same,residual activity,FES (human),66%
same,residual activity,MAPK13 (human),99.1%
same,residual activity,STK17A (human),95.5%
same,residual activity,VRK1 (human),95.5%
same,residual activity,GSK3A (human),55.8%
same,residual activity,TAOK2 (human),90.1%
same,residual activity,PIM3 (human),90.9%
same,residual activity,TNK2 (human),51.2%
same,residual activity,STK33 (human),84.6%
same,residual activity,NEK3 (human),99.1%
same,residual activity,MST1R (human),104%
same,residual activity,PRKD3 (human),88.5%
same,residual activity,NTRK2 (human),73.4%
same,residual activity,RPS6KA5 KD2 (human),104%
same,residual activity,RPS6KA3 KD1 KD2 (human),88%
same,residual activity,NEK6 (human),111%
CS(=O)(=O)CCNCc1ccc(-c2ccc3ncnc(Nc4ccc(OCc5cccc(F)c5)c(Cl)c4)c3c2)o1,residual activity,CDK6 CCND1 (human),100%
same,residual activity,PKN2 (human),92%
same,residual activity,GRK6 (human),101%
same,residual activity,ALK (human),104%
same,residual activity,SIK2 (human),101%
same,residual activity,LTK (human),100%
same,residual activity,CSNK1G1 (human),105%
same,residual activity,CDK5 CDK5R1 p35 (human),103%
same,residual activity,[1],93.3%
same,residual activity,AKT2 (human),105%
same,residual activity,STK4 (human),99.4%
same,residual activity,ULK2 (human),104%
same,residual activity,BRSK1 (human),98.6%
same,residual activity,CDK9 CCNT1 (human),85.2%
same,residual activity,FGFR1 (human),102%
same,residual activity,MAP3K11 (human),106%
same,residual activity,TSSK1B (human),79%
same,residual activity,PRKCA (human),83%
same,residual activity,GSG2 (human),66.5%
same,residual activity,MAP2K2 (human),106%
same,residual activity,STK25 (human),102%
same,residual activity,WEE1 (human),97.5%
same,residual activity,MAP2K1 (human),105%
same,residual activity,STK16 (human),97.1%
same,residual activity,PIM2 (human),102%
same,residual activity,IGF1R (human),87.4%
same,residual activity,FES (human),104%
same,residual activity,MAPK13 (human),91.1%
same,residual activity,STK17A (human),89.7%
same,residual activity,VRK1 (human),101%
same,residual activity,GSK3A (human),105%
same,residual activity,TAOK2 (human),105%
same,residual activity,PIM3 (human),93.7%
same,residual activity,TNK2 (human),97.5%
same,residual activity,STK33 (human),94.7%
same,residual activity,NEK3 (human),99.6%
same,residual activity,MST1R (human),92.2%
same,residual activity,PRKD3 (human),88.6%
same,residual activity,NTRK2 (human),98.8%
same,residual activity,RPS6KA5 KD2 (human),98.3%
same,residual activity,RPS6KA3 KD1 KD2 (human),105%
same,residual activity,NEK6 (human),93.7%

# Source: the kinase profiling compilation of Christmann-Franck et al. (2016)
